Data published in US20090253650A1, “Teat antiseptic prepared from polysaccharide gel with bactericidal and immuno-stimulating activity isolated from durian fruit-rind” (priority 2008, published 2009).

System: peritoneal leukocyte
Assay: Peritoneal leukocyte count in mice after intraperitoneal injection
Assay type: in vivo
Conditions: 3% thioglycollate (positive control)

For thioglycollate, the “Number of Lymphocyte (mean ± S.E.)” value was 0.86 ± 0.14 ×10^6 cell/ml.
